According to BindingDB's records for doi:10.1021/jm030398k (National Institute of Diabetes and Digestive and Kidney …, 2004):

Biological target: tyramine oxidase (microbial)
Assay: Compound was evaluated for inhibition of Microbial tyramine oxidase; irreversible

IC50: 20 µM
SMILES: NNC(=O)C1(c2ccccc2)CC1F (stereo unspecified) [2-Fluoro-1-phenyl-cyclopropanecarboxylic acid hydrazide]
